The text below walks through data of paper PMC11521309, “A novel 4-aminoquinoline chemotype with multistage antimalarial activity and lack of cross-resistance with PfCRT and PfMDR1 mutants” (PLOS Pathogens, 2024).

Broadly, the IC50 is the point on the concentration scale where inhibition reaches its midpoint. The IC90 is the point of the concentration-response curve where the effect stands at 90%. In general, CC50 refers to the concentration at which the toxic effect on the cells reaches its halfway point.

For one data set, the system named is P. falciparum FCB^KD1. More on the design: method as in ref 2 Sidhu et al. 2006. The settings on record: means ± SEM, N 4; ref 2 Sidhu et al. 2006; read-out: IC50 FCBKD1; cited from earlier work.
For a further data set, the system named is P. falciparum Dd2^F145I. On the set-up: key to Phenotype, Dd2^F145I: S: sensitive; R: resistant. The settings on record: cited from earlier work.
In a further data set the test system is P. falciparum FCB. As to the kind of experiment: ABS susceptibility, pfmdr1-modified line. The class given is cell-based. The settings on record: Plasmodium falciparum. As to the method:
P. falciparum ABS parasites were cultured at 3% hematocrit in human O^+ RBCs in RPMI-1640 media supplemented with 25 mM HEPES, 50 mg/L hypoxanthine, 2 mM L-glutamine, 0.21% sodium bicarbonate, 0.5% (w/v) AlbuMAXII (Invitrogen) and 10 μg/mL gentamycin. Culture flasks were kept in modular incubator chambers (Billups-Rothenberg) in a 5% O2, 5% CO2, and 90% N2 atmosphere at 37°C. Synchronized ring-stage parasites were obtained by two consecutive rounds of treatment with 5% D-sorbitol in 48-hour intervals. […] This was done by exposing cultures at 1% hematocrit and 0.3% parasitemia in 96-well plates in the presence of drugs in a two-fold 10 or 12-point serial dilution in duplicate along with drug-free controls. After a 72-hour incubation, parasite survival was assessed by flow cytometry on an iQue flow cytometer (Sartorius) using SYBR Green and MitoTracker Deep Red FM (Life Technologies) as nuclear stain and vital dye, respectively. Parasite survival was determined as a percentage relative to drug-free control. IC50 values were interpolated from log concentration versus response curves in Prism 9 (GraphPad Prism Software Inc.).

Data set [1] can be described thus: MTT cytotoxicity assay, 72 h. The settings on record: human, HepG2 cells; MTT, 72 h, N = 3. The class given is cell-based, Human. Here is the method: (§1) Human hepatoma (HepG2) and fibroblast-like monkey kidney cells (COS-7) were cultured in Dulbecco’s Modified Eagle Medium supplemented with 10% heat-inactivated fetal bovine serum and gentamycin (40 mg/L) at 37°C in a 5% CO2 atmosphere. Cytotoxicity of test compounds was measured by metabolic reduction of mitochondrial enzymes using the MTT assay (3-[4,5-dimethyl-thiazol-2-yl]-2,5-diphenyltetrazolium chloride). Cells were seeded at 10^5 cells/well in 96-well plates and incubated for 72 hours in the presence of a 2-fold 12-point serial dilution of drugs along with drug-free controls. After adding 15 μL of MTT (5 mg/mL) to the wells, plates were centrifuged at 317g for 5 minutes and the pellet was resuspended in isopropanol. Absorbance was measured at 570 nm (CLARIOStar, Labtech BMG). Cell viability was determined by formazan production, and was expressed as a percentage of untreated control wells.
In general terms: Tetrazolium dyes change colour on reduction, which living cells bring about.

The subject of the next data set is HepG2 cells. As to the kind of experiment: MTT cytotoxicity assay, 72 h. In kind it is cell-based, Human. Here is the method:
as §1

As to `CCN(CC)CCCC(C)Nc1ccnc2cc(Cl)ccc12` (stereo not shown) [CQ, chloroquine], the IC50 was 0.242 ± 0.0439 µM in the data set with P. falciparum FCB^KD1 and 0.0193 ± 0.0013 µM in the data set with P. falciparum Dd2^F145I (Dd2F145I, mean ± SEM, ref 1 (Ross et al., 2018)). Further, the “Phenotype, Dd2^F145I” value in the data set on P. falciparum Dd2^F145I (a: sensitized to CQ compared to the parental line but not fully sensitive, ref [19],[20],[51]) is recorded as “S ^a”.

Take `COc1cc2nccc(Nc3cccc(Oc4ccccc4)c3)c2cc1OC` [LDT-623]: the IC50 with P. falciparum FCB (read-out: IC50 FCB) amounted to 0.414 ± 0.0129 µM. The IC90 in the data set on P. falciparum FCB (read-out: IC90 FCB) came out at 4.43 ± 0.164 µM. In data set [1], the CC50 at 72 h was 1.3 ± 0.1 µM. Further, the “SI (CC50 HepG2 / IC50 3D7)” value with HepG2 cells stood at 10.
